Laboratory results from PubChem BioAssay (NCI).
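Assay format: 96-well plates, 48-hour exposure. Here, GI50 denotes the concentration required for 50% inhibition of growth. TGI is the concentration that stops growth completely.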

Assays:
Experiment in all cases: DTP human tumour cell line panel, 48 h
[1] = tested on: 786-0 renal
[2] = tested on: A498 renal
[3] = tested on: A549 NSCLC
[4] = tested on: ACHN renal
[5] = tested on: BT-549 breast
[6] = tested on: CAKI-1 renal
[7] = tested on: CCRF-CEM leukemia
[8] = tested on: COLO 205 colon
[9] = tested on: DU-145 prostate
[10] = tested on: EKVX NSCLC
[11] = tested on: HCC-2998 colon
[12] = tested on: HCT-116 colon
[13] = tested on: HCT-15 colon
[14] = tested on: HL-60(TB) leukemia
[15] = tested on: HOP-62 NSCLC
[16] = tested on: HOP-92 NSCLC
[17] = tested on: HS 578T breast
[18] = tested on: HT29 colon
[19] = tested on: IGROV1 ovarian
[20] = tested on: K-562 leukemia
[21] = tested on: KM12 colon
[22] = tested on: LOX IMVI melanoma
[23] = tested on: M14 melanoma
[24] = tested on: MALME-3M melanoma
[25] = tested on: MCF7 breast
[26] = tested on: MDA-MB-231 breast
[27] = tested on: MDA-MB-435
[28] = tested on: MOLT-4 leukemia
[29] = tested on: NCI-H226 lung
[30] = tested on: NCI-H23 lung
[31] = tested on: NCI-H460 lung
[32] = tested on: NCI-H522 lung
[33] = tested on: NCI/ADR-RES ovarian
[34] = tested on: OVCAR-3 ovarian
[35] = tested on: OVCAR-4 ovarian
[36] = tested on: OVCAR-5 ovarian
[37] = tested on: OVCAR-8 ovarian
[38] = tested on: PC-3 prostate
[39] = tested on: RPMI-8226 leukemia
[40] = tested on: SF-268 CNS
[41] = tested on: SF-295 CNS
[42] = tested on: SF-539 CNS
[43] = tested on: SK-MEL-2 melanoma
[44] = tested on: SK-MEL-28 melanoma
[45] = tested on: SK-MEL-5 melanoma
[46] = tested on: SK-OV-3 ovarian
[47] = tested on: SN12C renal
[48] = tested on: SNB-19 CNS
[49] = tested on: SNB-75 CNS
[50] = tested on: SR leukemia
[51] = tested on: SW-620 colon
[52] = tested on: T-47D breast
[53] = tested on: TK-10 renal
[54] = tested on: U251 CNS
[55] = tested on: UACC-257 melanoma
[56] = tested on: UACC-62 melanoma
[57] = tested on: UO-31 renal

With `COc1ccc([C@H]2[C@H](O)C(=O)N2c2cc(OC)c(OC)c(OC)c2)cc1` the GI50 [1] was < 0.0178 µM, the TGI [1] was > 100 µM and the GI50 [2] was > 100 µM. For the same molecule, the TGI [2] was > 100 µM, the GI50 [3] was < 0.0132 µM and the TGI [3] was > 100 µM. The GI50 [4] was < 0.01 µM, the TGI [4] was > 100 µM and the GI50 [5] was < 0.0137 µM. The TGI [5] was 0.288 µM, the GI50 [6] was < 0.01 µM and the TGI [6] was > 100 µM. The GI50 [7] was < 0.01 µM, the TGI [7] was > 100 µM and the GI50 [8] was < 0.0132 µM. The TGI [8] was < 0.0209 µM, the GI50 [9] was < 0.0109 µM and the TGI [10] was > 100 µM. For the same molecule, the GI50 [11] was < 0.0158 µM, the TGI [11] was > 100 µM and the GI50 [12] was < 0.01 µM. For the same molecule, the TGI [12] was > 100 µM, the GI50 [13] was < 0.0103 µM and the TGI [13] was > 100 µM. The GI50 [14] was < 0.01 µM, the TGI [14] was < 0.0172 µM and the GI50 [15] was < 0.0199 µM. For the same molecule, the TGI [15] was > 100 µM, the TGI [16] was > 100 µM and the GI50 [17] was < 0.0111 µM. The TGI [17] was > 100 µM, the GI50 [18] was < 0.01 µM and the GI50 [19] was < 0.0108 µM. For the same molecule, the TGI [19] was > 100 µM, the GI50 [20] was < 0.01 µM and the TGI [20] was > 100 µM. The GI50 [21] was < 0.01 µM, the TGI [21] was > 100 µM and the GI50 [22] was < 0.01 µM. For the same molecule, the TGI [22] was > 100 µM, the GI50 [23] was < 0.0127 µM and the TGI [23] was > 100 µM. For the same molecule, the TGI [24] was > 100 µM, the GI50 [25] was < 0.01 µM and the TGI [25] was > 100 µM. For the same molecule, the GI50 [26] was < 0.0162 µM, the TGI [26] was > 100 µM and the GI50 [27] was < 0.01 µM. The TGI [27] was < 0.01 µM, the GI50 [28] was < 0.0168 µM and the TGI [28] was > 100 µM. For the same molecule, the GI50 [29] was < 0.01 µM, the TGI [29] was > 100 µM and the GI50 [30] was 0.011 µM. The TGI [30] was > 100 µM, the GI50 [31] was < 0.0133 µM and the TGI [31] was > 34.3 µM. For the same molecule, the GI50 [32] was < 0.01 µM, the TGI [32] was < 0.01 µM and the GI50 [33] was < 0.0139 µM. For the same molecule, the TGI [33] was 3.84 µM, the GI50 [34] was < 0.01 µM and the TGI [34] was 0.12 µM. The GI50 [35] was 1.75 µM, the TGI [35] was > 100 µM and the GI50 [36] was < 0.0179 µM. The TGI [36] was > 100 µM, the GI50 [37] was < 0.01 µM and the TGI [37] was < 0.01 µM. The GI50 [38] was < 0.01 µM, the TGI [38] was > 100 µM and the GI50 [39] was < 0.01 µM. For the same molecule, the TGI [39] was > 100 µM, the GI50 [40] was < 0.0207 µM and the TGI [40] was > 100 µM. The GI50 [41] was < 0.01 µM, the TGI [41] was > 100 µM and the GI50 [42] was < 0.01 µM. The TGI [42] was < 0.01 µM, the GI50 [43] was 0.0309 µM and the TGI [43] was > 100 µM. The GI50 [44] was 1.7 µM, the TGI [44] was > 100 µM and the GI50 [45] was < 0.01 µM. The TGI [45] was 0.0387 µM, the GI50 [46] was < 0.0121 µM and the TGI [46] was > 100 µM. For the same molecule, the GI50 [47] was < 0.015 µM, the TGI [47] was > 100 µM and the GI50 [48] was < 0.0267 µM. The TGI [48] was > 100 µM, the GI50 [49] was < 0.01 µM and the TGI [49] was > 100 µM. For the same molecule, the GI50 [50] was < 0.01 µM, the GI50 [51] was < 0.0109 µM and the TGI [51] was > 100 µM. The GI50 [52] was > 100 µM, the TGI [52] was > 100 µM and the GI50 [53] was > 100 µM. The TGI [53] was > 100 µM, the GI50 [54] was < 0.01 µM and the TGI [54] was > 100 µM. The GI50 [55] was 1.87 µM, the TGI [55] was > 100 µM and the GI50 [56] was < 0.01 µM. The TGI [56] was > 100 µM, the GI50 [57] was < 0.014 µM and the TGI [57] was > 100 µM.
